Assay results reported in publication PMC10607377, “The PKG Inhibitor CN238 Affords Functional Protection of Photoreceptors and Ganglion Cells against Retinal Degeneration” (International Journal of Molecular Sciences, 2023).

Key:
[1] = target: T1, cone CNG channel (CNGA3) (Homo sapiens, UniProt Q16281+Q9NQW8); assay: inside-out patch-clamp, concentration-activation; format: cell-based
T1 construct: CNGA3:CNGB3 expressed in Xenopus oocytes; with CNGB3
T1 sequence (Q16281 1-694): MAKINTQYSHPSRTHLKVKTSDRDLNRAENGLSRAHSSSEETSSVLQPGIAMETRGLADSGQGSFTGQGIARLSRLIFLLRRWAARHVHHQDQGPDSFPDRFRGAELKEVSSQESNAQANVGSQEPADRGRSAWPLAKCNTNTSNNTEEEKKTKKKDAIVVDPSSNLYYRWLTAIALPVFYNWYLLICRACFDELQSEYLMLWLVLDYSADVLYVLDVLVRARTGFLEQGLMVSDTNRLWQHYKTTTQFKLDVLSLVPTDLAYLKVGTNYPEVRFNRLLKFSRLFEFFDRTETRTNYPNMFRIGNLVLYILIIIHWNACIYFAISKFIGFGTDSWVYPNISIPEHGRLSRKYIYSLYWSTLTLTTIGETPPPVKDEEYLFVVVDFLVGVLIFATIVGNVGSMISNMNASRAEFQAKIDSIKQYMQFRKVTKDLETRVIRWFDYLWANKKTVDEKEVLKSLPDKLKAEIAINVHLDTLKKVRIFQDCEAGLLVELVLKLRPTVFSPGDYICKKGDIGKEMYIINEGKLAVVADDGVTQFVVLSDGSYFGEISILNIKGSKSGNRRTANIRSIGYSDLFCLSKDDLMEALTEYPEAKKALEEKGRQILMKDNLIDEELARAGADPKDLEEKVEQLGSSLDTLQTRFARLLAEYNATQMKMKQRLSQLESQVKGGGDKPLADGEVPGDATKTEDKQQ
T1 sequence (Q9NQW8 1-809): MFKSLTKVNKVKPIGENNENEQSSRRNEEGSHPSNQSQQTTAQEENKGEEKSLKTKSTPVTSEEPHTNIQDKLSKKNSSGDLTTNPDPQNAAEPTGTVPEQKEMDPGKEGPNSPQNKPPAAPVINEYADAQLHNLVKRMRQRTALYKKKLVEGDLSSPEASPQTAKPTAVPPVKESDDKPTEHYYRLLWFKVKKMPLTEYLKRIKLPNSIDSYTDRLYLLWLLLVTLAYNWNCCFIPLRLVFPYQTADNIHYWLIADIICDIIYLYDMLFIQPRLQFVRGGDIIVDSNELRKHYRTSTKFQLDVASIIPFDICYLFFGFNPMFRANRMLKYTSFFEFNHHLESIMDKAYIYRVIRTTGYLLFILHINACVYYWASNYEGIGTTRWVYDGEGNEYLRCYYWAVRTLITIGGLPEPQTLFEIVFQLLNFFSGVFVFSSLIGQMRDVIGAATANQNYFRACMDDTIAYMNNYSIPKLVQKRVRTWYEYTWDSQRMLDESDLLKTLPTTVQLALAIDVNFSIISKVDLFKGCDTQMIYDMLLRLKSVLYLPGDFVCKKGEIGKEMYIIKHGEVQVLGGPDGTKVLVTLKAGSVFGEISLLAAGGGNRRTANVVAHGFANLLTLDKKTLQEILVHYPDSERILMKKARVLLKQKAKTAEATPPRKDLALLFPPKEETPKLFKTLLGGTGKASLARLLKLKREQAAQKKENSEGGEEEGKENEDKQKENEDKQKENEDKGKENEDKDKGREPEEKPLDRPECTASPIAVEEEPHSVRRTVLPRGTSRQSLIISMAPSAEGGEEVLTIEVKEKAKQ

[2] = target: T2, PKG2 (Homo sapiens, UniProt Q13237); assay: coupled spectrophotometric kinase activation assay; format: biochemical
T2 construct: gene PRKG2; FLAG-Strep-Strep-tagged human PKG2 (1–762) WT
T2 sequence (Q13237 1-762): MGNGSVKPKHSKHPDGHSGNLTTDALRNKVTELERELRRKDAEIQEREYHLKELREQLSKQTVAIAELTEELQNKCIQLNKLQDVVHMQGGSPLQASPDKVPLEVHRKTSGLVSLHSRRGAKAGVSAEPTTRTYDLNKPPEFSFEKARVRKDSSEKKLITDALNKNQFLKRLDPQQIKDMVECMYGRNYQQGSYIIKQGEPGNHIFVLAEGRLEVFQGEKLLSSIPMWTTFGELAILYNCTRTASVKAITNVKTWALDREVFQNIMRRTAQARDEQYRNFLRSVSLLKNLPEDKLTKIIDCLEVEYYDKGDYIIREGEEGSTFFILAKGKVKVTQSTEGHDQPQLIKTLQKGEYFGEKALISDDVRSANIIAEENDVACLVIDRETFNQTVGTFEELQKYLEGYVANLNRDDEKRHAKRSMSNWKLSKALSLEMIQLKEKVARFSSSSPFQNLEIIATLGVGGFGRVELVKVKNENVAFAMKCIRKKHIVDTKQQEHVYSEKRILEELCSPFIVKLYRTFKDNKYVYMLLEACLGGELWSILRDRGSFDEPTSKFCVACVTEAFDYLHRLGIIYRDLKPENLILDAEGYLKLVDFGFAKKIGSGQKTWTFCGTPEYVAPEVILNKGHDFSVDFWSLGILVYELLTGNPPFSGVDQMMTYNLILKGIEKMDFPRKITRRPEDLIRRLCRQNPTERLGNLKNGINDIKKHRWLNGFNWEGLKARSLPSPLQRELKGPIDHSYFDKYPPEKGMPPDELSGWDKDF

[3] = target: T3, PKG1β (Homo sapiens, UniProt Q13976)
T3 construct: gene PRKG1
T3 sequence (Q13976 4-686 isoform Q13976-2): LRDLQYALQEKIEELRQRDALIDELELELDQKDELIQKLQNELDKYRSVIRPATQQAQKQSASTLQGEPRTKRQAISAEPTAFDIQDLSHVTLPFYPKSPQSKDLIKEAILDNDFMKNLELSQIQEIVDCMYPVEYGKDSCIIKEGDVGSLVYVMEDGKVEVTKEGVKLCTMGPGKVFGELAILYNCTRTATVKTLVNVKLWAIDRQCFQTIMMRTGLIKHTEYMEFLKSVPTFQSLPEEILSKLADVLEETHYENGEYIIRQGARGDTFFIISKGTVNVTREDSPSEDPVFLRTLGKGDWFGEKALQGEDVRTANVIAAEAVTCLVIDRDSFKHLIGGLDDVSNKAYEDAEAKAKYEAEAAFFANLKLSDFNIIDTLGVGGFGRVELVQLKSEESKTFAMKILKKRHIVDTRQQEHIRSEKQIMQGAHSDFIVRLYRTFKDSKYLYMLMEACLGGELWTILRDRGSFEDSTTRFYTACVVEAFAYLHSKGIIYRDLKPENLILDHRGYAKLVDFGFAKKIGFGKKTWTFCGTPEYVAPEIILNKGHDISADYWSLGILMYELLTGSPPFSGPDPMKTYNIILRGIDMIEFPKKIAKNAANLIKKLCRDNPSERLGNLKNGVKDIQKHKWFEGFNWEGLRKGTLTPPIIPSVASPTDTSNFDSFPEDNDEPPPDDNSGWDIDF

Nc1nc2c(ncn2[C@@H]2O[C@@H]3COP(=O)(O)O[C@H]3[C@H]2O)c(=O)[nH]1 [cGMP]
EC50 [1]: 10.7 µM
coupled spectrophotometric kinase activation assay [2]: Activation with cGMP was determined for all PKG isoforms
coupled spectrophotometric kinase activation assay [3]: Activation with cGMP was determined for all PKG isoforms
